Test results from patent US20080261994A1, “CYCLOPROPANE COMPOUNDS AND PHARMACEUTICAL USE THEREOF” (Japan Tobacco Inc., priority 2003, published 2008).

Experiments:
Assay type in all cases: biochemical
MMP-1 = target: T1, MMP-1 (Homo sapiens, UniProt P03956); test: MMP-1 inhibitory action (Type I collagen Activity Measurement kit, FITC-labeled collagen type I); settings: Experimental Example 2; read-out: IC50 MMP1
T1 sequence (P03956 100-469): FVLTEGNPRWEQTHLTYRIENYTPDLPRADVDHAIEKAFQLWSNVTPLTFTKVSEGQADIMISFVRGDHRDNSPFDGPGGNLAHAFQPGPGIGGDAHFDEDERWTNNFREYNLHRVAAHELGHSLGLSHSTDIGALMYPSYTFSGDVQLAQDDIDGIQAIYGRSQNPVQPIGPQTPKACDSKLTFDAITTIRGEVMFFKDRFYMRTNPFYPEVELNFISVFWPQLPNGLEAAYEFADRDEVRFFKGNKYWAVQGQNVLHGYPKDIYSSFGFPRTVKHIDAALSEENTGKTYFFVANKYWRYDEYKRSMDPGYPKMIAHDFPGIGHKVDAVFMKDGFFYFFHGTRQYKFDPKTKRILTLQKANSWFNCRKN

aggrecanase-1 = target: T2, aggrecanase-1 (Homo sapiens, UniProt O75173); test: Aggrecanase-1 inhibitory action (Particle Assay, GAG release from aggrecan-containing polyacrylamide particles); settings: Experimental Example 1; read-out: IC50 AG1
T2 sequence (O75173 213-837): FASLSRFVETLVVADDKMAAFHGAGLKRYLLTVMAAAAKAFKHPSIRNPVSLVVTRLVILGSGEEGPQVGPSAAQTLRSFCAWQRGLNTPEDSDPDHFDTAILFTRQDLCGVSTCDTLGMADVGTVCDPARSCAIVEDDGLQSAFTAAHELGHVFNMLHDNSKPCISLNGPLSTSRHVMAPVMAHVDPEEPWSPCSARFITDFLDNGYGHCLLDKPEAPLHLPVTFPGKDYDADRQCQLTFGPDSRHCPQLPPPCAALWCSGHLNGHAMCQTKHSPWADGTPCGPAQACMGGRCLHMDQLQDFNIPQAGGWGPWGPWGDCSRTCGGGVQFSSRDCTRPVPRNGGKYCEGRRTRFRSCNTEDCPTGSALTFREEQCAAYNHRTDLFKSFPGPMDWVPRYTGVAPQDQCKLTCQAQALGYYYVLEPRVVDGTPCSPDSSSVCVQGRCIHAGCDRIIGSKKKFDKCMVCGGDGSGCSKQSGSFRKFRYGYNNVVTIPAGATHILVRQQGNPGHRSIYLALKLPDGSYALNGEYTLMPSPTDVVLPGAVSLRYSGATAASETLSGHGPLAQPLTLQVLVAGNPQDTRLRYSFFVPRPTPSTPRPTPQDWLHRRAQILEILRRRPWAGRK
Summary of the method: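 Readout was dimethylmethylene blue absorbance (595 nm) of glycosaminoglycan liberated into supernatant, calibrated with whale chondroitin sulfate. Substrate was aggrecan in polyacrylamide particles, digested 15 h at 37° C in Tris-HCl; TC50 (μM) derived from inhibition relative to no-enzyme and no-inhibitor controls.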

Recombinant Human MMP-13 = target: T3, Recombinant Human MMP-13 (Homo sapiens, UniProt P45452); test: MMP-13 inhibitory activity (MMP-13 specific fluorescent substrate with quencher); settings: Experimental Example 3; read-out: IC50 MMP13
T3 construct: purchased R&D systems 511-MM
Summary of the method: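 IC50 (μM) derived from % inhibition, normalised to wells without enzyme and without inhibitor, fluorescence read at 325/405 nm. Enzyme and compound preceded addition of the quenched 7-MCA…DPA substrate; Tris-HCl buffer, 25 °C for 1 h, acetic-acid stop.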

| IC50 (MMP-1) | IC50 (aggrecanase-1) | IC50 (Recombinant Human MMP-13) | Compound |
| --- | --- | --- | --- |
| ≥ 1 µM | < 0.1 µM | < 0.1 µM | CC(C)C(=O)NCCCC1(c2ccccc2)CC1(NS(=O)(=O)c1ccc(-c2ccc(Cl)cc2)s1)C(=O)O (stereo not drawn) [Example 2-319] |
| ≥ 1 µM | < 1 µM | < 1 µM | CN(C)C(=O)OCC1(c2ccccc2)CC1(NS(=O)(=O)c1ccc(-c2cc(C(F)(F)F)on2)s1)C(=O)O (stereo not drawn) [Example 2-320] |
| ≥ 1 µM | < 1 µM | < 1 µM | CCNC(=O)OCC1(c2ccccc2)CC1(NS(=O)(=O)c1ccc(-c2cc(C(F)(F)F)on2)s1)C(=O)O (stereo not drawn) [Example 2-321] |
| ≥ 1 µM | < 0.1 µM | < 1 µM | O=C(O)C1(NS(=O)(=O)c2ccc(-c3cc(C(F)(F)F)on3)s2)CC1(CN1CCOCC1)c1ccccc1 (stereo not drawn) [Example 2-322] |
| ≥ 1 µM | ≥ 1 µM | < 0.1 µM | CC1[C@H](c2ccccc2)[C@]1(NS(=O)(=O)c1ccc(-c2cc(C(F)(F)F)on2)s1)C(=O)NO (stereo partly drawn) [Example 2-323] |
| ≥ 10 µM | ≥ 1 µM | ≥ 1 µM | CC1[C@H](c2ccccc2)[C@]1(NS(=O)(=O)c1ccc(OCc2ccc(Cl)cc2Cl)cc1)C(=O)NO (stereo partly drawn) [Example 2-325] |
| ≥ 10 µM | ≥ 1 µM | ≥ 1 µM | COCCN(C)CC1(c2ccccc2)CC1(NS(=O)(=O)c1ccc(-c2cc(C(F)(F)F)on2)s1)C(=O)O (stereo not drawn) [Example 2-336] |
| ≥ 10 µM | < 1 µM | < 1 µM | CN(C)CCSCC1(c2ccccc2)CC1(NS(=O)(=O)c1ccc(-c2ccc(Cl)cc2)s1)C(=O)O (stereo not drawn) [Example 2-337] |
| ≥ 1 µM | < 0.1 µM | < 1 µM | CC1[C@H](c2ccccc2)[C@]1(NS(=O)(=O)c1ccc(-c2cc(C(F)(F)F)no2)s1)C(=O)O (stereo partly drawn) [Example 2-338] |
| ≥ 10 µM | < 1 µM | ≥ 1 µM | CC1(c2ccc(F)cc2)CC1(NS(=O)(=O)c1ccc(-c2cc(C(F)(F)F)on2)s1)C(=O)O (stereo not drawn) [Example 2-340] |
| ≥ 10 µM | ≥ 1 µM | ≥ 1 µM | CCN(CC)CC1(c2ccccc2)CC1(NS(=O)(=O)c1ccc(-c2cc(C(F)(F)F)on2)s1)C(=O)O (stereo not drawn) [Example 2-343] |
| ≥ 10 µM | < 0.1 µM | < 1 µM | O=C(O)C1(NS(=O)(=O)c2ccc(-c3ccc(Cl)cc3)s2)CC1(CSCCO)c1ccccc1 (stereo not drawn) [Example 2-345] |
| ≥ 10 µM | < 1 µM | < 1 µM | CC(C)S(=O)(=O)CC1(c2ccccc2)CC1(NS(=O)(=O)c1ccc(-c2ccc(Cl)cc2)s1)C(=O)O (stereo not drawn) [Example 2-348] |
| ≥ 1 µM | ≥ 1 µM | < 1 µM | O=C(O)C1(NS(=O)(=O)c2ccc(OCc3ccc(Cl)cc3Cl)cc2)C2CCc3ccccc3C21 (stereo not drawn) [Example 2-355] |

The remaining lines, values behind:

| Compound | IC50 (MMP-1) | IC50 (aggrecanase-1) | IC50 (Recombinant Human MMP-13) |
| --- | --- | --- | --- |
| O=C(O)C1(NS(=O)(=O)c2ccc(-c3cc(C(F)(F)F)on3)s2)CC1c1cc(CO)on1 (stereo not drawn) [Example 2-318] | ≥ 10 µM | ≥ 1 µM | ≥ 10 µM |
| CC1[C@H](c2ccccc2)[C@]1(NS(=O)(=O)c1ccc(OCc2ccc(Cl)cc2Cl)cc1)C(=O)O (stereo partly drawn) [Example 2-324] | ≥ 10 µM | ≥ 1 µM | ≥ 1 µM |
| CC1C(c2ccccc2)C1(NS(=O)(=O)c1ccc(-c2ccc(Cl)cc2)s1)C(=O)O (stereo not drawn) [Example 2-326] | ≥ 1 µM | < 1 µM | < 1 µM |
| CCC1[C@@H](c2ccccc2)[C@@]1(NS(=O)(=O)c1ccc(-c2cc(C(F)(F)F)on2)s1)C(=O)O (stereo partly drawn) [Example 2-327] | < 1 µM | < 1 µM | < 0.1 µM |
| CCC1[C@H](c2ccccc2)[C@]1(NS(=O)(=O)c1ccc(-c2cc(C(F)(F)F)on2)s1)C(=O)O (stereo partly drawn) [Example 2-328] | < 0.1 µM | < 0.1 µM | < 0.1 µM |
| O=C(O)C1(NS(=O)(=O)c2ccc(-c3cc(C(F)(F)F)on3)s2)CC1(CN1CCCC1)c1ccccc1 (stereo not drawn) [Example 2-329] | ≥ 10 µM | ≥ 1 µM | ≥ 1 µM |
| O=C(O)C1(NS(=O)(=O)c2ccc(-c3cc(C(F)(F)F)on3)s2)CC1(CN1CCCCC1)c1ccccc1 (stereo not drawn) [Example 2-330] | ≥ 10 µM | ≥ 1 µM | ≥ 1 µM |
| O=C(NC1CC1)OCC1(c2ccccc2)CC1(NS(=O)(=O)c1ccc(-c2cc(C(F)(F)F)on2)s1)C(=O)O (stereo not drawn) [Example 2-331] | ≥ 1 µM | < 1 µM | < 1 µM |
| CN(CCO)C(=O)OCC1(c2ccccc2)CC1(NS(=O)(=O)c1ccc(-c2cc(C(F)(F)F)on2)s1)C(=O)O (stereo not drawn) [Example 2-332] | ≥ 1 µM | < 1 µM | < 1 µM |
| O=C(NCCO)OCC1(c2ccccc2)CC1(NS(=O)(=O)c1ccc(-c2cc(C(F)(F)F)on2)s1)C(=O)O (stereo not drawn) [Example 2-333] | ≥ 1 µM | < 1 µM | < 1 µM |
| CN1CCN(C(=O)OCC2(c3ccccc3)CC2(NS(=O)(=O)c2ccc(-c3cc(C(F)(F)F)on3)s2)C(=O)O)CC1 (stereo not drawn) [Example 2-334] | ≥ 1 µM | < 1 µM | < 1 µM |
| NC(=O)OCC1(c2ccccc2)CC1(NS(=O)(=O)c1ccc(-c2cc(C(F)(F)F)on2)s1)C(=O)O (stereo not drawn) [Example 2-335] | ≥ 1 µM | < 1 µM | < 1 µM |
| CC1(c2ccc(F)cc2)CC1(NS(=O)(=O)c1ccc(-c2cc(C(F)(F)F)on2)s1)C(=O)O (stereo not drawn) [Example 2-339] | ≥ 1 µM | < 0.1 µM | < 1 µM |
| O=C(O)C1(NS(=O)(=O)c2ccc(-c3ccc(Cl)cc3)s2)CC1(CN1CCOCC1)c1ccccc1 (stereo not drawn) [Example 2-341] | ≥ 10 µM | < 0.1 µM | ≥ 1 µM |
| CN1CCN(CC2(c3ccccc3)CC2(NS(=O)(=O)c2ccc(-c3cc(C(F)(F)F)on3)s2)C(=O)O)CC1 (stereo not drawn) [Example 2-342] | ≥ 1 µM | < 1 µM | ≥ 1 µM |
| C[C@@H]1CN(CC2(c3ccccc3)CC2(NS(=O)(=O)c2ccc(-c3ccc(Cl)cc3)s2)C(=O)O)C[C@H](C)O1 (stereo partly drawn) [Example 2-344] | ≥ 10 µM | < 0.1 µM | < 1 µM |
| O=C(O)C1(NS(=O)(=O)c2ccc(-c3ccc(Cl)cc3)s2)CC1(Cn1ccnc1)c1ccccc1 (stereo not drawn) [Example 2-346] | ≥ 10 µM | < 1 µM | < 1 µM |
| O=C(O)C1(NS(=O)(=O)c2ccc(-c3ccc(Cl)cc3)s2)CC1(COCCO)c1ccccc1 (stereo not drawn) [Example 2-347] | ≥ 10 µM | < 0.1 µM | < 1 µM |
| CC(C)SCC1(c2ccccc2)CC1(NS(=O)(=O)c1ccc(-c2ccc(Cl)cc2)s1)C(=O)O (stereo not drawn) [Example 2-349] | ≥ 10 µM | < 0.1 µM | < 1 µM |
| O=C(O)C1(NS(=O)(=O)c2ccc(-c3ccc(Cl)cc3)s2)C2CCc3ccccc3C21 (stereo not drawn) [Example 2-350] | ≥ 1 µM | < 1 µM | < 0.1 µM |
| O=C(O)C1(NS(=O)(=O)c2ccc(-c3cc(C(F)(F)F)on3)s2)C2CCc3ccccc3C21 (stereo not drawn) [Example 2-351] | < 1 µM | < 0.1 µM | < 0.1 µM |
| CCOC(=O)CSCC1(c2ccccc2)CC1(NS(=O)(=O)c1ccc(-c2ccc(Cl)cc2)s1)C(=O)O (stereo not drawn) [Example 2-352] | ≥ 1 µM | < 0.1 µM | < 0.1 µM |
| CC1[C@H](c2ccccc2)[C@]1(NS(=O)(=O)c1ccc(-c2cc(C(F)F)on2)s1)C(=O)O (stereo partly drawn) [Example 2-353] | < 1 µM | < 0.1 µM | < 0.1 µM |
| CC1[C@H](c2ccccc2)[C@]1(NS(=O)(=O)c1ccc(-c2cc(C(F)F)no2)s1)C(=O)O (stereo partly drawn) [Example 2-354] | ≥ 1 µM | < 0.1 µM | < 1 µM |
| O=C(O)C1(NS(=O)(=O)c2ccc(-c3ccc(Cl)cc3)s2)CC1(COCc1ccccc1)c1ccccc1 (stereo not drawn) [Example 2-356] | < 1 µM | < 1 µM | < 1 µM |
| CN(C)C(=O)CSCC1(c2ccccc2)CC1(NS(=O)(=O)c1ccc(-c2ccc(Cl)cc2)s1)C(=O)O (stereo not drawn) [Example 2-357] | ≥ 1 µM | < 0.1 µM | < 0.1 µM |
